From paper PMC5615155 (Toxicology Reports, 2017)

Assays:
[1] = 13-week dietary toxicity study; type: in vivo, CD [Crl:CD(SD)] rats
[2] = single-dose pharmacokinetics and oral bioavailability; type: in vivo, Sprague-Dawley rats; conditions: for AUClast / Cmax: S2218 in plasma
solubility / dissolution = type: physicochemical
[3] = toxicokinetics in 13-week dietary study; type: in vivo, Sprague-Dawley rats; conditions: for bioavailability of S8069 in 13-week study: male and female, range
[4] = 140 mg/kg bw/day females, p < 0.05
[5] = S8069 oral gavage, 7.83 mg/kg bw S2218 equiv., F
[6] = S8069 oral gavage, 7.83 mg/kg bw S2218 equiv., M
[7] = S8069 oral gavage, 78.3 mg/kg bw S2218 equiv., F
[8] = S8069 oral gavage, 78.3 mg/kg bw S2218 equiv., M
[9] = Day 7, 140 mg/kg bw diet, M + F
[10] = Day 91, 30 mg/kg bw diet, M + F
[11] = Day 91, 70 mg/kg bw diet, M + F
[12] = Day 91, 140 mg/kg bw diet, M + F

## Cc1cc(C(=O)NC(C)(C)COc2cccc3c2C(N)=NS(=O)(=O)N3)cc(C)n1.O=S(=O)(O)O [S8069]
[1]; 140 mg/kg bw/day females, p < 0.01
  pituitary/brain weight decrease vs control: 17.7%
[1]; [4]
  kidney/brain weight decrease vs control: 8.1%
  liver/brain weight decrease vs control: 9.8%
  pituitary gland mean absolute weight decrease vs control: 15.1%
  pituitary/body weight decrease vs control: 14.6%
[1]; 140 mg/kg bw/day females, p > 0.05
  brain weight increase relative to control: 3.4%
[1]; 30, 70, 140 mg/kg bw/day food ad-mix
  Findings: No test-article related findings
[1]; rat, in vivo
  margin of safety (NOAEL 140 mg/kg bw/day vs PADI 47 μg/kg bw/day): > 2975 fold
[2]; [5]
  %F: 0.77%
  Tmax: 0.250 ± 0.0 h
  t1/2: 1.15 ± 0.353 h
  AUClast: 26.4 ± 14.3 ng·h/mL
  Cmax: 24.4 ± 10.1 ng/mL
[2]; [6]
  %F: 0.60%
  Tmax: 0.313 ± 0.125 h
  t1/2: 0.786 ± 0.110 h
  AUClast: 23.6 ± 5.26 ng·h/mL
  Cmax: 21.4 ± 1.54 ng/mL
[2]; [7]
  %F: 0.29%
  Tmax: 0.250 ± 0.0 h
  t1/2: 0.969 ± 0.315 h
  AUClast: 99.1 ± 23.2 ng·h/mL
  Cmax: 106 ± 39.7 ng/mL
[2]; [8]
  %F: 0.14%
  Tmax: 0.250 ± 0.0 h
  t1/2: 0.860 ± 0.340 h
  AUClast: 55.6 ± 17.8 ng·h/mL
  Cmax: 60.5 ± 16.9 ng/mL
[2]; oral, both test articles, male and female rats, all doses
  %F: 0.14–0.77%
Solubility / dissolution
  solubility in water: very soluble in water
Solubility / dissolution; S8069 at 10 mg/mL, S2218 at all dose levels
  state in 1% methylcellulose dosing formulation: completely dissolved
[3]; 30 mg/kg bw, F
  ACUM Ratio (dose-normalized AUC0-24h Day 91/Day 7): 1.35
[3]; 30 mg/kg bw, M
  ACUM Ratio (dose-normalized AUC0-24h Day 91/Day 7): 2.86
[3]; 30 mg/kg bw, M + F
  ACUM Ratio (dose-normalized AUC0-24h Day 91/Day 7): 1.88
[3]; 70 mg/kg bw, F
  ACUM Ratio (dose-normalized AUC0-24h Day 91/Day 7): 0.821
[3]; 70 mg/kg bw, M
  ACUM Ratio (dose-normalized AUC0-24h Day 91/Day 7): 1.07
[3]; 70 mg/kg bw, M + F
  ACUM Ratio (dose-normalized AUC0-24h Day 91/Day 7): 0.954
[3]; 140 mg/kg bw, F
  ACUM Ratio (dose-normalized AUC0-24h Day 91/Day 7): 0.768
[3]; 140 mg/kg bw, M
  ACUM Ratio (dose-normalized AUC0-24h Day 91/Day 7): 4.55
[3]; 140 mg/kg bw, M + F
  ACUM Ratio (dose-normalized AUC0-24h Day 91/Day 7): 2.30
[3]; Day 7, 30 mg/kg bw
  F:M Ratio (AUC0-24h/Dose): 1.75
[3]; Day 7, 30 mg/kg bw diet, F
  AUC0-24h: 253 ng·h/mL
  AUC0-24h/Dose: 9.10 ng·h/mL/mg/kg
  Cmax: 20.1 ng/mL
  Cmax/Dose: 0.723 ng/mL/mg/kg
  Tmax: 3 h
[3]; Day 7, 30 mg/kg bw diet, M
  AUC0-24h: 134 ng·h/mL
  AUC0-24h/Dose: 5.19 ng·h/mL/mg/kg
  Cmax: 14.0 ng/mL
  Cmax/Dose: 0.543 ng/mL/mg/kg
  Tmax: 1 h
[3]; Day 7, 30 mg/kg bw diet, M + F
  AUC0-24h: 194 ng·h/mL
  AUC0-24h/Dose: 7.24 ng·h/mL/mg/kg
  Cmax: 11.1 ng/mL
  Cmax/Dose: 0.414 ng/mL/mg/kg
  Tmax: 3 h
[3]; Day 7, 70 mg/kg bw
  F:M Ratio (AUC0-24h/Dose): 0.914
[3]; Day 7, 70 mg/kg bw diet, F
  AUC0-24h: 610 ng·h/mL
  AUC0-24h/Dose: 9.33 ng·h/mL/mg/kg
  Cmax: 44.4 ng/mL
  Cmax/Dose: 0.679 ng/mL/mg/kg
  Tmax: 0 h
[3]; Day 7, 70 mg/kg bw diet, M
  AUC0-24h: 641 ng·h/mL
  AUC0-24h/Dose: 10.2 ng·h/mL/mg/kg
  Cmax: 32.8 ng/mL
  Cmax/Dose: 0.522 ng/mL/mg/kg
  Tmax: 6 h
[3]; Day 7, 70 mg/kg bw diet, M + F
  AUC0-24h: 626 ng·h/mL
  AUC0-24h/Dose: 9.77 ng·h/mL/mg/kg
  Cmax: 34.3 ng/mL
  Cmax/Dose: 0.535 ng/mL/mg/kg
  Tmax: 12 h
[3]; Day 7, 140 mg/kg bw
  F:M Ratio (AUC0-24h/Dose): 1.48
[3]; Day 7, 140 mg/kg bw diet, F
  AUC0-24h: 1640 ng·h/mL
  AUC0-24h/Dose: 12.0 ng·h/mL/mg/kg
  Cmax: 137 ng/mL
  Cmax/Dose: 1.00 ng/mL/mg/kg
  Tmax: 24 h
[3]; Day 7, 140 mg/kg bw diet, M
  AUC0-24h: 1020 ng·h/mL
  AUC0-24h/Dose: 8.16 ng·h/mL/mg/kg
  Cmax: 57.0 ng/mL
  Cmax/Dose: 0.456 ng/mL/mg/kg
  Tmax: 6 h
[3]; [9]
  AUC0-24h: 1330 ng·h/mL
  AUC0-24h/Dose: 10.15 ng·h/mL/mg/kg
  Cmax: 86.5 ng/mL
  Cmax/Dose: 0.660 ng/mL/mg/kg
  Tmax: 6 h
[3]; Day 7, food ad-mix
  bioavailability of S8069 in 13-week study: 1.28–3.36%
[3]; Day 91, 30 mg/kg bw
  F:M Ratio (AUC0-24h/Dose): 0.828
[3]; Day 91, 30 mg/kg bw diet, F
  AUC0-24h: 376 ng·h/mL
  AUC0-24h/Dose: 12.3 ng·h/mL/mg/kg
  Cmax: 58.8 ng/mL
  Cmax/Dose: 1.93 ng/mL/mg/kg
  Tmax: 6 h
[3]; Day 91, 30 mg/kg bw diet, M
  AUC0-24h: 427 ng·h/mL
  AUC0-24h/Dose: 14.9 ng·h/mL/mg/kg
  Cmax: 35.8 ng/mL
  Cmax/Dose: 1.25 ng/mL/mg/kg
  Tmax: 6 h
[3]; [10]
  AUC0-24h: 402 ng·h/mL
  AUC0-24h/Dose: 13.6 ng·h/mL/mg/kg
  Cmax: 47.3 ng/mL
  Cmax/Dose: 1.60 ng/mL/mg/kg
  Tmax: 6 h
[3]; Day 91, 70 mg/kg bw
  F:M Ratio (AUC0-24h/Dose): 0.703
[3]; Day 91, 70 mg/kg bw diet, F
  AUC0-24h: 507 ng·h/mL
  AUC0-24h/Dose: 7.67 ng·h/mL/mg/kg
  Cmax: 27.8 ng/mL
  Cmax/Dose: 0.421 ng/mL/mg/kg
  Tmax: 0 h
[3]; Day 91, 70 mg/kg bw diet, M
  AUC0-24h: 748 ng·h/mL
  AUC0-24h/Dose: 10.9 ng·h/mL/mg/kg
  Cmax: 60.4 ng/mL
  Cmax/Dose: 0.880 ng/mL/mg/kg
  Tmax: 3 h
[3]; [11]
  AUC0-24h: 627 ng·h/mL
  AUC0-24h/Dose: 9.32 ng·h/mL/mg/kg
  Cmax: 40.0 ng/mL
  Cmax/Dose: 0.594 ng/mL/mg/kg
  Tmax: 3 h
[3]; Day 91, 140 mg/kg bw
  F:M Ratio (AUC0-24h/Dose): 0.248
[3]; Day 91, 140 mg/kg bw diet, F
  AUC0-24h: 1120 ng·h/mL
  AUC0-24h/Dose: 9.18 ng·h/mL/mg/kg
  Cmax: 85.0 ng/mL
  Cmax/Dose: 0.697 ng/mL/mg/kg
  Tmax: 12 h
[3]; Day 91, 140 mg/kg bw diet, M
  AUC0-24h: 4550 ng·h/mL
  AUC0-24h/Dose: 37.0 ng·h/mL/mg/kg
  Cmax: 358 ng/mL
  Cmax/Dose: 2.91 ng/mL/mg/kg
  Tmax: 12 h
[3]; [12]
  AUC0-24h: 2840 ng·h/mL
  AUC0-24h/Dose: 23.3 ng·h/mL/mg/kg
  Cmax: 222 ng/mL
  Cmax/Dose: 1.82 ng/mL/mg/kg
  Tmax: 12 h
[3]; Day 91, food ad-mix
  bioavailability of S8069 in 13-week study: 2.15–9.14%
